Data on two molecules can be found in article PMC2804909 (Journal of medicinal chemistry, 2010).

Experiment [1] has as its target HiOASS-A (Haemophilus influenzae, UniProt P45040). The experiment is described as follows: biochemical.
For experiment [2], the target named is T1, MNLNI (SAT C-terminal pentapeptide) (Haemophilus influenzae).
T1 chain: MNLNI
The experiment is described as follows: fluorescence titration.

No end group written: not given here.

As usually defined, the Kd is the free concentration of one partner at which half of the binding sites on the other are occupied at equilibrium, for simple one-to-one binding. Read a high Kd as lower affinity. As for MNENI [MNENI], in experiment [1], the Kd was about 7 mM.

B1: HiOASS-A (protein)
chain: MAIYADNSYSIGNTPLVRLKHFGHNGNVVVKIEGRNPSYSVKCRIGANMVWQAEKDGTLTKGKEIVDATSGNTGIALAYVAAARGYKITLTMPETMSLERKRLLCGLGVNLVLTEGAKGMKGAIAKAEEIVASDPSRYVMLKQFENPANPQIHRETTGPEIWKDTDGKVDVVVAGVGTGGSITGISRAIKLDFGKQITSVAVEPVESPVISQTLAGEEVKPGPHKIQGIGAGFIPKNLDLSIIDRVETVDSDTALATARRLMAEEGILAGISSGAAVAAADRLAKLPEFADKLIVVILPSASERYLSTALFEGIEG
In the case of B1, the Kd in experiment [2] is 0.044 mM.
